{
  "source": "patent US10633675B2",
  "about": "“Microbial engineering for the production of chemical and pharmaceutical products from the isoprenoid pathway” (priority 2009, dated 2020)",
  "key": {"[1]": {"system": "engineered strains of E. coli", "assay": "Effect of externally-introduced indole on cell growth", "format": "cell-based", "text": "(§1) FIGS. 15A-15C. Impact of metabolite byproduct Indole accumulation on taxadiene production and growth. […] Strains 26 to 28 and 30 to 32, all with chromosomally integrated upstream pathway expression, were chosen for consistent comparison. The two sets of strains differ only in the expression of the downstream pathway with the second set (30 to 32) having twice the level of expression of the first. In strains 26 to 28 and 30 to 32, upstream expression increased by changing the promoters from Trc, to T5 and T7, respectively. […] The fold improvements are relative to strain 25 and 29, respectively, for the two sets. […] Different concentrations of indole were introduced into cultures of cells cultured in minimal media with 0.5% yeast extract. […] Data are mean+/−SD for three replicates. Strains devoid of the downstream pathway and with different strengths of the upstream pathway (1, 2, 6, 21, 40 and 100) were selected."}, "[2]": {"system": "taxadiene synthesis by strain 26", "assay": "Effect of externally-introduced indole on taxadiene production", "format": "cell-based, E. coli", "text": "as §1"}},
  "data": [
    {"compound": "c1ccc2[nH]ccc2c1", "note": "[indole]", "values": [
      {"measurement": "effect on cell growth", "setting": "[1]; further increasing the indole concentration, level of inhibition very strain dependent (FIG. 15C)", "value": "inhibited cell growth"},
      {"measurement": "effect on cell growth of strain 26 compared with strains devoid of the downstream pathway", "setting": "[1]; strain 26, the high taxadiene producer (FIG. 15C)", "value": "strongest inhibition"},
      {"measurement": "exogenous indole level at which taxadiene synthesis is severely inhibited", "setting": "[2]; exogenous indole (FIG. 15B)", "value": "> 100", "unit": "mg/L"},
      {"measurement": "effect on taxadiene production", "setting": "[2]; indole concentration increased from 50 mg/L to 100 mg/L, minimal media with 0.5% yeast extract (FIG. 15B)", "value": "significantly reduced"}
    ]}
  ]
}
